# Data taken from US8962576B2, “Compositions and method for improving endothelial function and cardiovascular health” (Natreon, Inc., priority 2012, dated 2015).
# Where “and” joins values, the source holds several entries; their conditions need not be identical. Identical values can stand only once.
# Experiments:
# Assay type in all cases: in vivo, human
# Type 2 Diabetic Subjects [1] = test: Endothelial function: reflection index (RI), salbutamol challenge test, study (a); conditions: Sensoril or Capros 250 mg twice daily, Atorvastatin 10 mg at night; for Abs Change in RI(%) Post Salbutamol challenge: n = 10
# Text: Procedure for Assessment of Endothelial Function by Determination of Reflection Index (RI).
# A salbutamol (albuterol) challenge test employing digital volume plethysmography was used to assess endothelial function as reported by Chowienczyk et al., “Photoplethysmographic assessment of pulse wave reflection: blunted response to endothelium dependant beta 2-adrenergic vasodilation in type 2 diabetes mellitus,” J. Am. Coll. Cardiol. (1999 December) 34(7):2007-14; and Naidu, et al., “Comparison of two β2 adrenoceptor agonists by different routes of administration to assess human endothelial function,” Indian J. Pharmacol. (2007) 39:168-9. The patients were examined in supine position after 5 minutes of rest. A digital volume pulse (DVP) was obtained using a photo plethysmograph (Pulse Trace PCA2, PT200, Micro Medical, Gallingham, Kent, UK) transmitting infrared light at 940 nm, placed on the index finger of the right hand. The signal from the plethysmograph was digitized using a 12 bit analogue to digital converter with a sampling frequency of 100 Hz. DVP waveforms were recorded over 20 second period and the height of the late systolic/early diastolic portion of the DVP was expressed as a percentage of the amplitude of the DVP to yield the reflection index (RI), per the procedure described in detail by Millasseau et al., “Determination of age related increases in large artery stiffness by digital pulse contour analysis,” Clinical Science (2002) 103: 371-377. Three DVP recordings were taken, and measurements of reflection index (RI) were calculated and the mean value was determined. Patients were then administered 400 μg of salbutamol by inhalation. After 15 minutes three measurements of RI were obtained again and the difference in mean RI before and after administration of salbutamol was used for assessing endothelial function. A change of ≦6% in RI post-salbutamol was considered as endothelial dysfunction.
# platelet aggregation = test: Platelet aggregation with ADP, dual channel aggregometer, study (a)
# Protocol: Evaluation of Platelet Aggregation.
# The platelet aggregation was determined by the following procedure using Wheecon chronologue dual channel platelet aggregometer (Wheecon Instruments Pvt. Ltd., Chemai, Tamilnadu, India). The percentage decrease in platelet aggregation was recorded at baseline and 3 hours post treatment. Approximately 9 ml of blood sample was collected in a 10 ml plastic test tube containing 1 ml of 3.8% Sodium Citrate from the cubital vein of the subject at baseline and after 3 hours post treatment in all the groups. The test was performed immediately within a time period of one and half hours from collection. The samples were centrifuged at 800 rpm for 15 minutes to obtain a platelet-rich plasma. A portion of the same sample was centrifuged at 2500 rpm for 10 minutes so as to get a platelet-poor plasma sample. The aggregometer was switched about 30 minutes before the test to allow the heating block to warm up to 37° C. Then the test was performed in duplicate by taking 0.5 ml of platelet-rich plasma using 5 μl of adenosine di-phosphate (ADP) solution (2 μgm/ml) in cuvettes containing magnetic stir bars. The speed of stir bars were adjusted at 1200 rpm so as to facilitate the aggregation of the platelets. The platelet-poor plasma sample was kept as reference. The readings were recorded at baseline and after treatment with ADP. The percentage aggregation at baseline and the percentage inhibition of platelet aggregation on post treatment with all the four treatments was calculated.
# Type 2 Diabetic Subjects [2] = test: Biomarkers of oxidative stress and hsCRP, study (c); conditions: CAPROS 250 mg twice daily, Atorvastatin 10 mg daily, n = 20
# Protocol: Malondialdehyde (MDA) levels were determined as described in Vidyasagar, et al., “Oxidative stress and antioxidant status in acute organophosphorous insecticide poisoning,” Indian J. Pharmacol. (April 2004) 36(2): 76-79. Glutathione levels were determined as described in G. L. Ellman, Arch. Biochem. Biophys. (1959) 82: 70-77 (original determination). Nitric oxide levels were estimated spectrophotometrically as described in Miranda, et al., “A Rapid, Simple Spectrophotometric Method for Simultaneous Detection of Nitrate and Nitrite,” NITRIC OXIDE: Biology and Chemistry (2001) Vol. 5, No. 1, pp. 62-71.
# (§1) After screening, all the eligible subjects were randomized to receive either one of the four treatments for a duration of 12 weeks, as follows.
# Nitric oxide, MDA, Glutathione (GSH) and levels thereof were estimated spectrophotometrically as described above, and HsCRP (high sensitivity C-reactive protein) by ELISA method.
# Type 2 Diabetic Subjects [3] = test: Lipid profile, study (c); conditions: CAPROS 250 mg twice daily, Atorvastatin 10 mg daily, n = 20
# Text: as §1
# All the subjects had undergone complete physical examination, safety lab evaluations at baseline and at the end of the treatment. Samples were collected after an overnight fast of 12 hrs after the last dose of medication for determination of haemoglobin, HbA1c, blood urea and serum creatinine, liver function test, and lipid profile (Total cholesterol (TC), High density lipoprotein cholesterol (HDL-C), low density lipoprotein cholesterol (LDL-C)), and results obtained using appropriate standard techniques.
compound,measurement,setting,value
CC(C)c1c(C(=O)Nc2ccccc2)c(-c2ccccc2)c(-c2ccc(F)cc2)n1CC[C@@H](O)C[C@@H](O)CC(=O)O [Atorvastatin],Abs Change in RI(%) Post Salbutamol challenge,"Type 2 Diabetic Subjects [1]; Post treatment, 12 weeks",−11.04% and −11.04 ± 5.48 %
same,Abs Change in RI(%) Post Salbutamol challenge,Type 2 Diabetic Subjects [1]; Pre treatment,−2.45% and −2.45 ± 0.64%
same,Mean % change in Abs Change in RI (%) Post Salbutamol challenge,Type 2 Diabetic Subjects [1]; after 12 weeks of treatment,336.1 ± 235.2%
same,% Inhibition of Platelet Aggregation,"platelet aggregation; 3 hours post treatment, ADP, n = 10",7.11%
same,platelet aggregation,"platelet aggregation; Post treatment, 3 hours post treatment, ADP, n = 10",62.00±12.81%
same,platelet aggregation,"platelet aggregation; Pre treatment (baseline), ADP, n = 10",66.50±11.00%
same,reduction of ADP induced platelet aggregation,"platelet aggregation; earlier study, results in Table V",did not produce significant reduction
same,Absolute change in MDA,Type 2 Diabetic Subjects [2]; 12 weeks,−1.17 ± 0.75 nM/ml
same,Absolute change in NO,Type 2 Diabetic Subjects [2]; 12 weeks,28.45 ± 12.30 μM/L
same,Absolute change in hsCRP,Type 2 Diabetic Subjects [2]; 12 weeks,−2.10 ± 1.26 Mg/L
same,Mean percentage change in MDA,Type 2 Diabetic Subjects [2]; 12 weeks,−30.55 ± 19.81%
same,Mean percentage change in NO,Type 2 Diabetic Subjects [2]; 12 weeks,88.44 ± 50.97%
same,Mean percentage change in hsCRP,Type 2 Diabetic Subjects [2]; 12 weeks,−64.90 ± 26.99%
same,MDA,"Type 2 Diabetic Subjects [2]; Post TT, 12 weeks",2.37 ± 0.59 nM/ml
same,NO,"Type 2 Diabetic Subjects [2]; Post TT, 12 weeks",63.69 ± 15.04 μM/L
same,hsCRP,"Type 2 Diabetic Subjects [2]; Post TT, 12 weeks",0.97 ± 0.78 Mg/L
same,MDA,Type 2 Diabetic Subjects [2]; Pre TT,3.54 ± 0.85 nM/ml
same,NO,Type 2 Diabetic Subjects [2]; Pre TT,35.24 ± 9.71 μM/L
same,hsCRP,Type 2 Diabetic Subjects [2]; Pre TT,3.08 ± 1.38 Mg/L
same,Absolute change in HDL-C,Type 2 Diabetic Subjects [3]; 12 weeks,7.52 ± 7.00 mg/dL
same,Absolute change in LDL-C,Type 2 Diabetic Subjects [3]; 12 weeks,-47.48 ± 24.19 mg/dL
same,Absolute change in Total Cholesterol,Type 2 Diabetic Subjects [3]; 12 weeks,-48.11 ± 36.87 mg/dL
same,Absolute change in Triglycerides,Type 2 Diabetic Subjects [3]; 12 weeks,-48.54 ± 50.09 mg/dL
same,Absolute change in VLDL-C,Type 2 Diabetic Subjects [3]; 12 weeks,-5.30 ± 4.70 mg/dL
same,Mean percentage change in HDL-C,Type 2 Diabetic Subjects [3]; 12 weeks,21.16 ± 20.49%
same,Mean percentage change in LDL-C,Type 2 Diabetic Subjects [3]; 12 weeks,−35.00 ± 14.34%
same,Mean percentage change in Total Cholesterol,Type 2 Diabetic Subjects [3]; 12 weeks,−24.68 ± 14.38%
same,Mean percentage change in Triglycerides,Type 2 Diabetic Subjects [3]; 12 weeks,−25.02 ± 25.34%
same,Mean percentage change in VLDL-C,Type 2 Diabetic Subjects [3]; 12 weeks,−18.24 ± 17.10%
same,HDL-C,"Type 2 Diabetic Subjects [3]; Post TT, 12 weeks",47.95 ± 5.34 mg/dL
same,LDL-C,"Type 2 Diabetic Subjects [3]; Post TT, 12 weeks",78.50 ± 16.71 mg/dL
same,Total Cholesterol,"Type 2 Diabetic Subjects [3]; Post TT, 12 weeks",135.6 ± 26.94 mg/dL
same,Triglycerides,"Type 2 Diabetic Subjects [3]; Post TT, 12 weeks",106.5 ± 30.79 mg/dL
same,VLDL-C,"Type 2 Diabetic Subjects [3]; Post TT, 12 weeks",19.90 ± 3.64 mg/dL
same,HDL-C,Type 2 Diabetic Subjects [3]; Pre TT,40.44 ± 6.76 mg/dL
same,LDL-C,Type 2 Diabetic Subjects [3]; Pre TT,126.00 ± 34.90 mg/dL
same,Total Cholesterol,Type 2 Diabetic Subjects [3]; Pre TT,183.7 ± 37.41 mg/dL
same,Triglycerides,Type 2 Diabetic Subjects [3]; Pre TT,155.0 ± 56.51 mg/dL
same,VLDL-C,Type 2 Diabetic Subjects [3]; Pre TT,25.20 ± 6.57 mg/dL
